SMILES strings stand for the structures. Values after ≈ are worked out from the molar mass of the structure shown. Where a name gives a salt, the structure may show the parent alone. Read-outs that look alike come from different tables or passages of the source. Where only a bound is given, the exact number is not on record here.

The subject of experiment [1] is Bacillus anthracis. Nature of the experiment: microbe, parasite or virus in culture. It is filed as cell-based, Bacillus anthracis Sterne 7700 pXO1-/pXO2-. The note with it: 9 h, read-out: MIC (minimum inhibitory concentration).
In experiment [2] the test system is Staphylococcus aureus. As to the kind of experiment: Minimum inhibitory concentration (MIC), microtiter broth dilution method. The class given is cell-based, Staphylococcus aureus ATCC 12600 (CECT 86). The note with it: read-out: MIC (minimum inhibitory concentration).
Experiment [3] deals with Pseudomonas aeruginosa. The experiment is described as above. It is filed as cell-based, Pseudomonas aeruginosa ATCC 15692 (CECT 4122). The note with it: read-out: MIC (minimum inhibitory concentration).
Experiment [4] relates to murine macrophage J774 cell line. Nature of the experiment: Cytotoxicity, MTT colorimetric cell viability assay. The class given is cell-based. Conditions: Mus musculus, J774 macrophages, 24 and 48 h of exposure (time not given), read-out: Cytoxicity (IC50).
Experiment [5] concerns P. aeruginosa. Nature of the experiment: Capacity to inhibit the formation of bacterial biofilms. It is filed as cell-based. Conditions: 37°C for 48 h without agitation, viable count (cfu/ml), Fig. 1.
Experiment [6] has as its system S. aureus. The class given is cell-based.
The subject of experiment [7] is Enterococcus faecalis. Nature of the experiment: Minimum inhibitory concentration (MIC), microtiter broth dilution method. It is filed as cell-based, Enterococcus faecalis ATCC 19433 (CECT 481). The note with it: TSB broth, 37°C for 9 h, mean of triplicates.
The test system of experiment [8] is Staphylococcus epidermis. The experiment is described as above. It is filed as cell-based, Staphylococcus epidermidis ATCC 1798 (CECT 231). The note with it: TSB broth, 37°C for 9 h, mean of triplicates.
Where [9] appears, read: TSB broth, 37°C for 9 h, mean of triplicates.

In the case of `ONCc1ccccc1` [Comp 7, N-Benzyl-hydroxylamine hydrochloride, reference compound], the MIC in experiment [1], in experiment [2] (9 h) and in experiment [3] (9 h) was over 4000 µM each time. Further, the IC50 in experiment [4] was over 4000 µM.
`COc1cccc(OC)c1CNO` [Comp 8, N-(2,6-Dimethoxybenzyl)-hydroxylamine, reference compound]: the MIC in experiment [1], in experiment [2] (setting [9]) and in experiment [3] (setting [9]) was over 4000 µM each time.
As to `ONCCc1ccccc1` [Example 1, N-phenethyl-hydroxylamine], the biofilm formation entry in experiment [5] and in experiment [6] was “inhibit” throughout. The MIC in experiment [1] was 250 to 500 µM (≈ 34.3 to 68.6 µg/mL); in experiment [2] (setting [9]), 250 to 500 µM (≈ 34.3 to 68.6 µg/mL); in experiment [3] (setting [9]), 500 to 1000 µM (≈ 68.6 to 137 µg/mL); in experiment [7], 1000 to 2000 µM (≈ 137 to 274 µg/mL). For the same molecule, the IC50 in experiment [4] was found to be 1890 µM.
As for `ONCC1CCCCC1` [Example 2, N-cyclohexylmethyl-hydroxylamine], the biofilm formation result in experiment [5] and in experiment [6] was “inhibit” in each case. In addition, the MIC in experiment [8] fell in the range of 250 to 500 µM (≈ 32.3 to 64.6 µg/mL); in experiment [1], 250 to 500 µM (≈ 32.3 to 64.6 µg/mL); in experiment [2] (setting [9]), 250 to 500 µM (≈ 32.3 to 64.6 µg/mL); in experiment [3] (setting [9]), 125 to 250 µM (≈ 16.2 to 32.3 µg/mL); in experiment [7], 500 to 1000 µM (≈ 64.6 to 129 µg/mL). For the same molecule, the IC50 in experiment [4] was 1330 µM.
Take `ONCc1ccc(F)cc1` [Example 3, N-(4-fluorobenzyl)-hydroxylamine]: the biofilm formation result in experiment [5] and in experiment [6] was “inhibit” in each case. Besides, the MIC in experiment [8] was 125 to 250 µM (≈ 17.6 to 35.3 µg/mL); in experiment [1], 125 to 625 µM (≈ 17.6 to 88.2 µg/mL); in experiment [2] (setting [9]), 500 to 1000 µM (≈ 70.6 to 141 µg/mL); in experiment [3] (setting [9]), 1000 to 2000 µM (≈ 141 to 282 µg/mL); in experiment [7] it was 500 to 1000 µM (≈ 70.6 to 141 µg/mL). Besides, the IC50 in experiment [4] was determined as 1300 µM.
Regarding `COc1ccc(CNO)c(OC)c1` [Example 4, N-(2,4-dimethoxybenzyl)-hydroxylamine], the biofilm formation entry in experiment [5] and in experiment [6] was “inhibit” in each case. For the same molecule, the MIC in experiment [8] was in the range of 125 to 250 µM (≈ 22.9 to 45.8 µg/mL); in experiment [1], 125 to 250 µM (≈ 22.9 to 45.8 µg/mL); in experiment [2] (setting [9]), 500 to 1000 µM (≈ 91.6 to 183 µg/mL); in experiment [3] (setting [9]), 1000 to 2000 µM (≈ 183 to 366 µg/mL); in experiment [7], 500 to 1000 µM (≈ 91.6 to 183 µg/mL). For the same molecule, the IC50 in experiment [4] was 2270 µM.
In the case of `COc1ccc(CNO)c(C)c1` [Example 5, N-(4-methoxy-2-methylbenzyl)-hydroxylamine], the MIC in experiment [8] is 250 to 500 µM (≈ 41.8 to 83.6 µg/mL); in experiment [1], 125 to 625 µM (≈ 20.9 to 105 µg/mL); in experiment [2] (setting [9]), over 4000 µM; in experiment [3] (setting [9]), 1000 to 2000 µM (≈ 167 to 334 µg/mL); in experiment [7], 250 to 500 µM (≈ 41.8 to 83.6 µg/mL). Besides, the half-maximal inhibitory concentration (IC50) in experiment [4] came out at 2180 µM.
With `ONCc1cc(C(F)(F)F)cc(C(F)(F)F)c1` [Example 6, N-(3,5-bis-trifluoromethylbenzyl)-hydroxylamine], the MIC lay within 125 to 250 µM (≈ 32.4 to 64.8 µg/mL) in experiment [8]; 125 to 625 µM (≈ 32.4 to 162 µg/mL) in experiment [1]; 250 to 500 µM (≈ 64.8 to 130 µg/mL) in experiment [2] (setting [9]); 1000 to 2000 µM (≈ 259 to 518 µg/mL) in experiment [3] (setting [9]); 500 to 1000 µM (≈ 130 to 259 µg/mL) in experiment [7]. In addition, the 50% inhibitory concentration (IC50) in experiment [4] turned out to be 2070 µM.

One may read the IC50 as the concentration that inhibits the measured activity by half.

For the origin of these results see patent publication EP2902382A1, “Primary hydroxylamines and uses thereof” (Fundació Institut de Recerca Biomèdica IRB (Barcelona), priority 2014, dated 2015).
